# Laboratory results reported in EPA's ToxValDB 9.5 (doi:10.2903/j.efsa.2010.1904).
# How the values were obtained:
# Daphnia magna = details: chronic/long-term; duration: 21 days
# Oncorhynchus mykiss = details: chronic/long-term; duration: 21 days
# Canidae = details: chronic; duration: 52 weeks; oral; Dog Other
# Anas platyrhynchos = details: oral, mortality
# Ictalurus punctatus = details: acute; duration: 96 hours; mortality
# Oryctolagus sp. = details: reproduction developmental; reproduction
# Apis mellifera = details: acute; duration: 48 hours; oral; unspecified; mortality
compound,measurement,setting,value
N#Cc1sc2c(=O)c3ccccc3c(=O)c=2sc1C#N [Dithianon],NOEC,Daphnia magna,0.0595 mg/L
same,LC50,"Colinus virginianus; acute, oral, diet, mortality",> 1200 mg/kg-day
same,LD50,"Colinus virginianus; acute, oral, mortality",309 mg/kg-day
same,NOEC,"Colinus virginianus; reproduction developmental, reproduction",22.8 mg/kg-day
same,NOEC,Oncorhynchus mykiss,0.00046 mg/L
same,NOAEL,Canidae,1.6 mg/kg-day
same,LD50,"Anas platyrhynchos; acute, unspecified",> 2000 mg/kg-day
same,LC50,"Anas platyrhynchos; short-term, feed",> 790 mg/kg-day
same,LC50,Ictalurus punctatus,0.0143 µg/mL
same,NOAEL,Oryctolagus sp.,25 mg/kg-day
same,LD50,"Rattus norvegicus; acute, oral, mortality",< 500 mg/kg-day
same,NOAEL,"Rattus norvegicus; chronic, histopathology: neoplastic",1 mg/kg-day
same,NOAEL,"Rattus norvegicus; short-term, duration: 7 days, oral, histopathology: nonneoplastic",12 mg/kg-day
same,NOAEL,"Rattus norvegicus; short-term, duration: 28 days, oral, histopathology: nonneoplastic",12 mg/kg-day
same,LC50,"Tagia sp.; acute, duration: 14 days, mortality",578 mg/kg
same,NOEC,"Tagia sp.; chronic/long-term, duration: 56 days, reproduction",48 mg/kg
same,LD50,Apis mellifera,> 25.4 µg/piece
